Structures are written as SMILES. Structures can show the parent of a compound that is named as a salt.

The target in one data set is T1, substance P receptor from human lymphoblast cells (IM-9) (Homo sapiens, UniProt P25103).
T1 construct: The receptor was prepared from human lymphoblast cells (IM-9); endogenous in cells; host or cells: IM-9 human lymphoblast cells (crude membrane fraction, 40,000xG pellet)
T1 sequence (P25103 whole entry): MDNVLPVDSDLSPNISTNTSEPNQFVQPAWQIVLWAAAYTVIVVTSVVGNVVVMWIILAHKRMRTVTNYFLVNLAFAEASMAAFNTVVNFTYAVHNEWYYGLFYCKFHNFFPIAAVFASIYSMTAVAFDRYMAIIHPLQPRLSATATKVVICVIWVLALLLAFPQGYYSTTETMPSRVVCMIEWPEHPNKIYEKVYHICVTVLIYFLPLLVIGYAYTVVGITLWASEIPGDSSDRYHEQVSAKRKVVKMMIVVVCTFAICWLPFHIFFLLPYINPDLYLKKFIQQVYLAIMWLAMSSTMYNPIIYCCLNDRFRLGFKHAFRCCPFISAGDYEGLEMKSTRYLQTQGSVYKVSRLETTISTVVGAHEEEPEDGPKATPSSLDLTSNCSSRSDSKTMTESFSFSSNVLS
Briefly: Radioligand receptor binding inhibitory activity (125I-BHSP binding, receptor from human lymphoblast cells (IM-9)).
Conditions: not given
The method, then:
Radioligand receptor binding inhibitory activity (Binding inhibitory activity using receptor from human lymphoblast cells (IM-9))
The method of M. A. Cascieri et al., “Molecular Pharmacology 42, p. […] The receptor was prepared from human lymphoblast cells (IM-9). IM-9 cells (2×10^5 cells/ml) were inoculated and incubated for 3 days (one liter), which was then subjected to centrifuge for 5 minutes at 500×G to obtain cell pellets. […] The residue was twice washed with 30 ml of the above-mentioned buffer, which was then preserved frozen (−80° C.) as a specimen of the receptor.
The specimen was suspended in a reaction buffer (50 mM Tri-HCl buffer (pH 7.4), 0.02% bovine serum albumin, 1 mM phenylmethylsulfonyl fluoride, 2 μg/ml chymostatin, 40 μg/ml bacitracin and 3 mM manganese chloride) to have protein in the concentration of 0.5 mg/ml of protein and 100 μl portion of the suspension was used in the reaction. […] The amount of nonspecific binding was determined by adding substance P at a final concentration of 2×10^−6 M.
After the reaction, using a cell harvester (290 PHD, Cambridge Technology, Inc, U.S.A.), rapid filtration was carried out through a glass filter (GF/B, Whatman, U.S.A.) to stop the reaction. After washing three times with 250 μl of 50 mM Tris-HCl buffer (pH 7.4) containing 0.02% bovine serum albumin, the radioactivity remaining on the filter was determined with a gamma counter. Before use, the filter was immersed in 0.1% polyethyleneimine for 24 hours and air-dried.
A word on the IC50: it is the concentration that gives 50% inhibition. The molecule `COc1ccc(-n2nnnc2C(F)(F)F)cc1CNC1CCN(C(=O)CNC(C)=O)CC1c1ccccc1` (racemic) [Example 753] showed a 50% inhibitory concentration (IC50) of 73 pM.
On the same count and under the same terms, to `COc1ccc(-n2nnnc2C(F)(F)F)cc1CNC1CCN(C(=O)CCNC(C)=O)CC1c1ccccc1` (racemic) [Example 761] belongs 54 pM.
Consider `COc1ccc(-n2nnnc2C(F)(F)F)cc1CNC1CCN(C(C)=O)CC1c1ccccc1` (racemic) [Example 762], for which the 50% inhibitory concentration (IC50) came out at 49 pM.

The data set is the same for the next values; noted with them: 125I-BHSP binding, receptor from human lymphoblast cells (IM-9), 25° C., 30 minutes; read-out: IC50 Value.
`CNC(=O)N1CCC(NCc2cc(-n3nnnc3C(F)(F)F)cc3c2OCC3)C(c2ccccc2)C1` (racemic) [Example 722]: the concentration for half-maximal inhibition (IC50) was determined as 110 pM.
Turning to `COc1ccc(-n2nnnc2C(F)(F)F)cc1CNC1CCN(C(=O)C2CCN(S(C)(=O)=O)CC2)CC1c1ccccc1` (racemic) [Example 755], the half-maximal inhibitory concentration (IC50) is 96 pM.
Same read-out and setting: for `COc1ccc(-n2nnnc2C(F)(F)F)cc1CNC1CCN(C(=O)Cn2cnnn2)CC1c1ccccc1` (racemic) [Example 757] the value was 67 pM; for `COc1ccc(-n2nnnc2C(F)(F)F)cc1CNC1CCN(C(=O)CO)CC1c1ccccc1` (racemic) [Example 760], 85 pM; for `COc1ccc(-n2nnnc2C(F)(F)F)cc1CNC1CCN(C(=O)CS(C)(=O)=O)CC1c1ccccc1` (racemic) [Example 763], 80 pM.
Consider `COc1ccc(-n2nnnc2C(F)(F)F)cc1CNC1CCN(C(=O)CN2C(=O)CCC2=O)CC1c1ccccc1` (racemic) [Example 764], for which the concentration for half-maximal inhibition (IC50) was 42 pM.
On the same count and under the same terms, for `CNC(=O)N1CC[C@H](NCc2cc(-n3nnnc3C(F)(F)F)ccc2OC)[C@H](c2ccccc2)C1` (single isomer, unassigned) [Example 72, (+)-cis-4-[[2-Methoxy-5-[5-(trifluoromethyl)-1H-tetrazol-1-yl]benzyl]amino]-N-methyl-3-phenyl-1-piperidinecarboxamide hydrochloride] the value was 32 pM; for `CCNC(=O)N1CC[C@H](NCc2cc(-n3nnnc3C(F)(F)F)ccc2OC)[C@H](c2ccccc2)C1` (single isomer, unassigned) [Example 75, (+)-cis-N-Ethyl-4-[[2-methoxy-5-[5-(trifluoromethyl)-1H-tetrazol-1-yl]benzyl]amino]-3-phenyl-1-piperidinecarboxamide hydrochloride], 25 pM; for `COCC(=O)N1CC[C@H](NCc2cc(-n3nnnc3C(F)(F)F)ccc2OC)[C@H](c2ccccc2)C1` (single isomer, unassigned) [Example 78, (+)-cis-1-(Methoxyacetyl)-N-[2-methoxy-5-[5-(trifluoromethyl)-1H-tetrazol-1-yl]benzyl]-3-phenyl-4-piperidineamine hydrochloride], 60 pM.
For the molecule `CC(=O)N1CCC(C(=O)N2CC[C@H](NCc3cc(-n4nnnc4C(F)(F)F)cc4c3OCC4)[C@H](c3ccccc3)C2)CC1` (single isomer, unassigned) [Example 88, (−)-cis-1-[(1-Acetyl-4-piperidinyl)carbonyl]-3-phenyl-N-[[5-[5-(trifluoromethyl)-1H-tetrazol-1-yl]-2,3-dihydro-1-benzofuran-7-yl]methyl]-4-piperidineamine hydrochloride], the IC50 was found to be 60 pM.
On to `CNC(=O)N1CCC(OCc2cc(C(F)(F)F)cc(C(F)(F)F)c2)C(c2ccccc2)C1` (single isomer, unassigned; (+)) [Example 413, (+)-cis-4-[[3,5-Bis(trifluoromethyl)benzyl]oxy]-N-methyl-3-phenyl-1-piperidinecarboxamide], for which the IC50 was found to be 230 pM.
Still for that read-out and setting: to `CCNC(=O)N1CCC(NCc2cc(OC(F)(F)F)ccc2OC)C(c2ccccc2)C1` (single isomer, unassigned; (+)) [Example 613, (+)-cis-N-Ethyl-4-[[2-methoxy-5-(trifluoromethoxy)benzyl]amino]-3-phenyl-1-piperidinecarboxamide] belongs 70 pM; to `COc1ccc(-n2nnnc2C(F)(F)F)cc1CNC1CCN(C(=O)C2CCN(C(C)=O)CC2)CC1c1ccccc1` (single isomer, unassigned; (-)) [Example 81, (−)-cis-1-[(1-Acetyl-4-piperidinyl)carbonyl]-N-[2-methoxy-5-[5-(trifluoroinethyl)-1H-tetrazol-1-yl]benzyl]-3-phenyl-4-piperidineamine hydrochloride], 58 pM; to `CCNC(=O)N1CCC(NCc2cc(-n3nnnc3C(F)(F)F)cc3c2OCC3)C(c2ccccc2)C1` (single isomer, unassigned; (-)) [Example 84, (−)-cis-N-Ethyl-3-phenyl-4-[[[5-[5-(trifluoromethyl)-1-H-tetrazol-1-yl]-2,3-dihydro-1-benzofuran-7-yl]methyl]amino]-1-piperidinecarboxamide hydrochloride], 51 pM.
In the case of `CC(=O)N1CCC(C(=O)N2CC[C@H](OCc3cc(C(F)(F)F)cc(C(F)(F)F)c3)[C@H](c3ccccc3)C2)CC1` [Example 70, (+)-(3R,4S)-1-[(1-Acetyl-4-piperidinyl)carbonyl]-4-[[3,5-bis(trifluoromethyl)benzyl]oxy]-3-phenylpiperidine], the half-inhibitory concentration (IC50) was found to be 150 pM.

Test system in the next data set: not given
Assay: not given
Conditions: not given
In general, melting point refers to the temperature, or range, at which the solid turns liquid. In turn, `CNC(=O)N1CC[C@H](OCc2cc(C(F)(F)F)cc(C(F)(F)F)c2)[C@H](Cc2ccccc2)C1` (relative stereo) [Example 405, cis-3-Benzyl-4-[[3,5-bis(trifluoromethyl)benzyl]oxy]-N-methyl-1-piperidinecarboxamide] gave a melting point of 160 to 161 °C.

The record behind these values is patent US7622487B2, “Piperidine derivative, process for producing the same, and use” (Takeda Pharmaceutical Company Limited, priority 2002, dated 2009).
